From article PMC8176454, “Synthesis and Assessment of Novel Probes for Imaging Tau Pathology in Transgenic Mouse and Rat Models” (ACS Chemical Neuroscience, 2021)
Entries after “also recorded” stand apart in the source; their conditions may differ. Like-named read-outs stand apart in the source and are kept apart here.

Legend:
[1] = biological target: T1, tau aggregates in brain of P301S tau mice (Homo sapiens, UniProt P10636, P618S); test: Ex vivo mouse study: i.v. injection, brain sections imaged after 1 h; assay type: in vivo
T1 construct: from tissue; host or cells: brain of transgenic P301S tau mice (C57Bl/6 background)
Protocol: We next looked at the ability of LM229 to cross the blood–brain barrier (BBB), a key property of any viable neuro-radiotracer. LM229 was injected intravenously (i.v.) (1 mg/kg weight), and after 1 h, WT and P301S tau mice were perfused-fixed and brain sections were imaged under a fluorescence microscope. […] However, we await a comparison of PBB3 and LM229 by PET imaging to determine their relativity properties as in vivo imaging probes.
Mice were injected intravenously (i.v.) with 50 μM LM229 or PBB3 (DMSO) diluted in 50:50 ethanol/PBS. Animals were then perfused (4% PFA) 1 h post-i.v.

[2] = biological target: T2, heparin-induced synthetic recombinant tau fibrils (tau-441 human) (Homo sapiens, UniProt P10636); test: Fluorescence quenching assay of compound binding to heparin-induced synthetic recombinant tau fibrils; details: read-out: Kd of compound binding to heparin-induced synthetic tau fibrils determined by fluorimetry
T2 construct: purchased Eurogentec
Protocol: All compounds were assessed for their ability to bind to synthetic recombinant tau fibrils using a fluorescence quenching assay[20] […] Binding affinities for some compounds (141, 164, 166, 169, 171, and 207) could not be assessed with this assay because of negligible changes in fluorescence intensity. […] This compound was then selected for further characterization and development.
All reagents and solvents were used as supplied or purified using standard procedures as necessary. Analytical separation was conducted on an Ultimate 3000 HPLC system (Thermo Scientific). [^11C]CO2 was produced via the ^14N(p,α) nuclear reaction using GE PETtrace cyclotron applying 16.5 MeV protons onto 0.5% oxygen in nitrogen gas. [^11C]Methyl iodide was synthesized on a GE Medical Systems MeI MicroLab. A F-4500 FL spectrophotometer (Chemical Engineering department, University of Cambridge) was used to do fluorescence scan of all of the compounds mixed with tau fibrils. Excitation wavelength was 365 nm, and emission was scanned from 400 to 600 nm. With parameters, setting excitation slit was 5.0 nm, emission slit was 20.0 nm, PMT voltage was 950 V, and response was 0.5 s.
Monomeric tau (tau-441 human) lyophilized powder was obtained from Eurogentec. Tau monomers (100 μM) were prepared in 20 mM BES buffer (pH 7.4 with 25 mM NaCl and 2 mM dithiothreitol and incubated at 56 °C for 10 min. After being cooled to room temperature in a water bath, heparin (25 μM) and a protease inhibitor mix were added and incubated at 37 °C for 10 days. […]
Binding affinity of all compounds with tau fibrils […]
All other compounds binding affinit ies towards tau fibrils
were then tested by fluorescent binding assay. […]

[3] = test system: tau aggregates in DRG neurons from P301S tau mice; test: Fluorescence binding to cultured DRG neurons from P301S tau transgenic mice; assay type: cell-based, mouse; details: for IC50: Mus musculus, DRG neuron
Protocol: P301S tau mice with aggregated tau in the brain also express aggregated tau in DRG neurons.[24]−[26] […] To estimate the apparent affinity of LM229 to tau aggregates directly in living neurons, we imaged live neurons after 20 min incubation with various concentrations of LM229 (Figure 4A). […] LM229 binding was specific to neurons with aggregated tau, as detected with the AT100 antibody[18],[22],[23],[26] (Figure 4D). […] Although PBB3 also bound to DRG neurons with tau aggregates at 30–100 μM, it was not possible to derive an IC50 value because of its low affinity in this assay (Supporting Information, Figure S2). […] The shift from nanomolar to micromolar affinity between binding to heparin tau fibrils and tau aggregates in P301S tau neurons may reflect the different environment and assay conditions or the different conformations that tau aggregates assume in neurons compared to heparin–tau complexes.[27]
Neurons were prepared from phenotypic end stage 5–7 month old P301S tau mice and cultured as described previously.[24] For live staining, neurons cultured for 2 days were washed in PBS and incubated with various concentrations of LM229 for 20 min at room temperature. After three washes in PBS, neurons were imaged on a Leica DMI 4000B microscope using a DFC3000 G camera and application suite 4.0.0.11706. The dead cell stain Propidium iodide (1 μg/mL) was added to ensure that only live cells were imaged. Phase contrast images were taken to show viable neurons. For fixed cell staining, neurons were fixed for 20 min at room temperature in 4% paraformaldehyde, washed in PBS, and permeabilized in PBS containing 0.3% Triton X-100. LM299 was added as described for live cells, and cells were probed with AT100 (1:1000, MN1060) followed by anti-mouse AlexaFluor568 secondary antibody. Cultures were co-stained with the nuclear dye DAPI (blue) to reveal total cells. […]
Binding to cultured neurons from P301S tau transgenic mice
DRG were incubated with the indicated concentrations of LM229 or PBB3 for 20 minutes at room temperature, washed 3 times in PBS, and imaged on a Leica DMI 4000B microscope using a Leica DFC3000 G camera and the Leica application suite 4.0.0.11706. Fluorescence intensity was measured in 10-16 neurons each from 3 independent cultures using Image J (imagej.nih.gov/ij/). Results shown are mean ± SD. Non linear least squares curve fitting was applied using http://faculty.gvsu.edu/carlsont/232lab/nonlin2.html. No Km value was […]
Figure S2: Binding of LM229 and PBB3 to DRG neurons with tau aggregates […]
(1 picture or pasted object on this page, not shown here)

T1 sequence (P10636 1-383 isoform P10636-6 P243S): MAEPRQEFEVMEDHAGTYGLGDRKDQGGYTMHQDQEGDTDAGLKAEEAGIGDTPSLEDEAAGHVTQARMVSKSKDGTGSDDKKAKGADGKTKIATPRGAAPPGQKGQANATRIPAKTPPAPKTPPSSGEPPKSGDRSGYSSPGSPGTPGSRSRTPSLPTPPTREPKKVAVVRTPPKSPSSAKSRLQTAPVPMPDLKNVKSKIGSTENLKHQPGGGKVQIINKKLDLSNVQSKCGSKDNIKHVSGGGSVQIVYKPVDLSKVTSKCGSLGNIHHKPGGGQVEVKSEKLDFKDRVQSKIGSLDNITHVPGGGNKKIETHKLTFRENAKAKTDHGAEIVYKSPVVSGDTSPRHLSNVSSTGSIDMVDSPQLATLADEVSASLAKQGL
T2 sequence (P10636 1-441 isoform P10636-8): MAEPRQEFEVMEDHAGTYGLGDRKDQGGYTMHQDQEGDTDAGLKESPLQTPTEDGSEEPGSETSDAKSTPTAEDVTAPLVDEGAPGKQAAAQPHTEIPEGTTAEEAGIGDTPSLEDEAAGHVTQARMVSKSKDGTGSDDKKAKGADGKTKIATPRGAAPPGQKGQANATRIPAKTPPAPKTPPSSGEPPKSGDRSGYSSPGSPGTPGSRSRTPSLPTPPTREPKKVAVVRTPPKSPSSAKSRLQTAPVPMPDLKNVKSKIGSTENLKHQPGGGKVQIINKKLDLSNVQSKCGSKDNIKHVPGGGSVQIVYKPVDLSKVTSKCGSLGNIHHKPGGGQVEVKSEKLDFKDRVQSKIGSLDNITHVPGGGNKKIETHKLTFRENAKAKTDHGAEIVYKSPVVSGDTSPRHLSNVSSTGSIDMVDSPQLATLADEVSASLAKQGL

- Blood–brain barrier crossing ([1]; i.v. 1 mg/kg, 1 h, fluorescence microscopy): crosses the BBB
- Kd [2]: 0.0036 µM
- IC50 ([3]; 20 min, live DRG neurons, 20 min incubation, read-out: IC50, apparent affinity to tau aggregates in live neurons): 2.7 ± 0.7 µM
- IC50 ([3]; fixed DRG neurons, figure legend value, read-out: IC50, fixed neurons (Figure 4B)): 1.67 ± 0.28 µM
- IC50 ([3]; fixed, permeabilized DRG neurons, read-out: IC50, fixed and permeabilized neurons): 1.7 ± 0.3 µM
- IC50 ([3]; live DRG neurons, figure legend value, read-out: IC50, live neurons (Figure 4B)): 2.97 ± 0.73 µM
- Cell permeability ([3]; live vs fixed/permeabilized DRG neurons): highly cell permeable
Structure (SMILES): CNc1ccc(/C=C/C=C/c2nc3cc(F)c(O)cc3s2)cn1 [LM229]
- Ex vivo binding in P301S tau brain tissue ([1]; i.v. injection 1 h prior, colocalization with AT8): less non-specific binding and more specific binding to tau aggregates; also recorded: significant specific binding to tau aggregates
- Retention of fluorescence in neurons after exposure and washes ([3]; 3 days after exposure): still retained albeit to a lower intensity
